Values quoted from earlier work as cited in patent publication US20040241255A1, “Pharmaceutical composition containing valerina officinalis extract” (priority 2001, published 2004).

System: apnea during NREM sleep in rats
Settings: injected intraperitoneally

Row | Structure (SMILES) | Suppression of apnea during NREM sleep
1 | OC[C@H]1O[C@@H](n2cnc3c(N[C@H]4CCC[C@@H]4O)ncnc32)[C@H](O)[C@@H]1O (relative stereo) [N-[(1S,trans)-2-hydroxycyclopentyl]-adenosine] | dose-dependent suppression of apnea
2 | CCNC(=O)C1OC(n2cnc3c(N)nc(NCCc4ccc(CCC(=O)O)cc4)nc32)C(O)C1O.Cl (stereo not drawn) [2-p-(2-carboxyethyl)-phenethyl-amino-5′-N-ethylcarboxamido-adenosine hydrochloride] | dose-dependent suppression of apnea
3 | C[C@H](Cc1ccccc1)Nc1ncnc2c1ncn2[C@@H]1O[C@H](CO)[C@@H](O)[C@H]1O [phenylisopropyl adenosine] | dose-dependent suppression of apnea
